Assay results as given in US20260327250A1, “3-ETHYLAMINO-INDOLE DIMERS AS SEROTONERGIC AGENTS USEFUL FOR THE TREATMENT OF DISORDERS RELATED THERETO” (MINDSET PHARMA INC., priority 2022, published 2026).
Structures can show the parent of a compound that is named as a salt. Where two headings read alike, the source gives them in different places.

Key:
[1] = Human, rat and mouse liver microsomes stability (overall conclusion); assay type: in vitro ADME; settings: 60-minute time period
Procedure: This study was performed in duplicate.
All calculations were carried out using Microsoft Excel.
All calculations were carried out using Microsoft Excel. Peak areas were determined from extracted ion chromatograms.

in vitro [2] = settings: human
Procedure: (§1) The Caco-2 cell culture medium was prepared consisting of Dulbecco's Modified Eagle's Medium (DMEM) with high glucose and L-glutamine supplemented with 10% FBS, 1× penicillin-streptomycin mixture and 1× non-essential amino acids (NEAA). • 2. The 50 μL of culture medium was added to each well of the Transwell insert. Transwell insert was removed from reservoir and 25 mL of culture medium was added. • 3. Incubated at 37° C., 5% CO2 for 1 hour. Plates were ready for cell seeding. • 4. The cells were cultivated in T-75 flasks in a cell culture incubator set at 37° C., 5% CO2, 95% relative humidity. The cells were allowed to reach 80-90% confluence before detaching and splitting. • 5. The cultivated cells were rinsed in T-75 flasks with 5 mL PBS. Aspirated off, 1.5 mL trypsin/EDTA was added, and incubated at 37° C. for approximately 5 to 10 minutes or until the cells detach and float. Trypsin/EDTA was inactivated by adding excess serum containing medium. • 6. The cell suspension was moved to a conical tube and cells were pelleted by centrifugation at 120×g for 10 minutes. • 7. The cells were resuspended in seeding medium at a density of 6.86×10^5 cells/mL. This cell concentration can be used to seed 2.40×10^5 cells/cm^2. […] Seeding and Feeding of Caco-2 Cells in Transwell Plates • 1. 50 μL of above cell suspension was added to each well of a previously prepared Transwell plate. • 2. The plate was incubated for 14-18 days. The medium was replaced every other day, beginning no sooner than 48 hours after initial plating. • 3. The procedure for medium changes was as follows. The plate was removed from incubator and placed in hood. The medium was aspirated from reservoir and each Transwell insert. 75 μL of culture medium was added to each well of Transwell inserts and 25 mL of culture medium was added to reservoir tray. The plate was returned to incubator.
(§2) When the 14-day Caco-2 cultured cells have reached confluence and are differentiated, they were ready to be used for transport studies. • 2. The medium was removed from reservoir and Transwell inserts. • 3. 75 μL of pre-warmed culture medium was added to each transwell insert and 25 mL of reservoir tray. • 4. The electrical resistance across the monolayer was measured using automated tissue resistance measuring system (World Precision Instruments, Sarasota, FL). • 5. The electrical resistance was recorded for each well. • 6. Once all wells were measured, the plate was returned to incubator. • 7. TEER of each well was calculated by the equation below. The TEER value of each well should be greater than 230 ohms-cm^2. TEER measurement (ohms)×Area of membrane (cm^2)=TEER value (ohm-cm^2)
(§3) The Caco-2 plate was removed from the incubator. Next, the monolayer was washed, and the volume exchanged two times using pre-warmed HBSS (10 mM HEPES, pH 7.4). Then the plate was incubated for 30 minutes at 37° C. • 1 mM stock solutions of control compounds and test compound(s) were prepared in DMSO and diluted with HBSS (10 mM HEPES, pH 7.4) to reach the final concentration of 5 μM. The final concentration of DMSO in the incubation system was 0.5%. Digoxin, prazosin and propranolol were used as control compounds in this assay. • 3. HBSS (10 mM HEPES, pH 7.4) was removed after 30 minutes pre-incubation. • 4. The rate of drug transport was incubated in the apical to basolateral direction. 75 μL of the control compounds and test compound was added to the Transwell insert (apical compartment). The wells were filled in the receiver plate (basolateral compartment) with 235 μL of HBSS (10 mM HEPES, pH 7.4). • 5. The rate of drug transport was determined in the basolateral to apical direction. 235 μL of the control compounds and test compound(s) was added to the receiver plate wells (basolateral compartment). The Transwell insert (apical compartment) was filled with 75 μL of HBSS (10 mM HEPES, pH 7.4). • 6. […] Incubated at 37° C. for 2 hours. • 8.

in vitro [3] = settings: rat, plasma
Procedure: (§4) The stock solution of test compound was prepared in DMSO and diluted at the final concentration of 200 μM.
(§5) • a. 2.5 μL of 200 μM or 1 mM test compound or control compound solution was spiked to 497.5 μL plasma to reach a final concentration of 1 μM or 5 μM. The final concentration of organic solvents was 0.5%. The assay was performed in duplicated. • b. The reaction samples were incubated at 37° C. at approximately 60 rpm in a water bath. • c. Aliquots of 50 μL were taken from the reaction samples at 0, 30, 60, 120, 180 and 240 minutes. The reaction was stopped by the addition of 7 volumes of cold acetonitrile containing internal standards (IS: 100 nM alprazolam, 200 nM imipramine, 200 nM labetalol and 2 μM ketoprofen). • d. All samples were vortexed for 2 minutes, followed by centrifugation at 3,220 g for 30 minutes to precipitate proteins. 100 μL of the supernatant was transferred to a new plate. The supernatant was diluted with ultrapure water according to the LC-MS signal response and peak shape.
(§6) Samples were Analyzed by LC-MS/MS. • LC system: Shimadzu • MS analysis: Triple Quad™ 6500+ from AB Inc (Canada) with an ESI interface • Column temperature: 40° C. • Column: Xselect® Hss T3 2.5μ (2.1×30 mm) coupled with preguard column • Mobile phase: 0.1% formic acid in water (A) and 0.1% formic acid in acetonitrile (B)
(§7) All calculations were carried out using Microsoft Excel. Remaining percentages of parent compounds at each time point were estimated by determining the peak area ratios from extracted ion chromatograms.

Rat plasma stability = settings: for Remaining Percentage: rat plasma, 0 min
Procedure: as §4, §5, §6, §7

Mouse plasma stability = settings: for Remaining Percentage: mouse plasma, 0 min
Procedure: as §4, §5, §6, §7

Dog plasma stability = settings: for Remaining Percentage: dog plasma, 0 min
Procedure: as §4, §5, §6, §7

in vitro [4] = settings: mouse, plasma
Procedure: as §4, §5, §6, §7

in vitro [5] = settings: dog, plasma
Procedure: as §4, §5, §6, §7

[6] = molecular target: T1, human 5-hydroxytryptamine receptor 2A (5-HT2A) (Homo sapiens, UniProt P28223); experiment: Human 5-HT2A functional FLIPR assay (agonist mode); assay type: cell-based; settings: for RFU@10 μM: footnote: Curve fitting with activation (%) @ 10 mM with RFU
T1 construct: expressed in transfected cells; host or cells: HTR2A&Ga15-HEK293
T1 sequence (P28223 whole entry): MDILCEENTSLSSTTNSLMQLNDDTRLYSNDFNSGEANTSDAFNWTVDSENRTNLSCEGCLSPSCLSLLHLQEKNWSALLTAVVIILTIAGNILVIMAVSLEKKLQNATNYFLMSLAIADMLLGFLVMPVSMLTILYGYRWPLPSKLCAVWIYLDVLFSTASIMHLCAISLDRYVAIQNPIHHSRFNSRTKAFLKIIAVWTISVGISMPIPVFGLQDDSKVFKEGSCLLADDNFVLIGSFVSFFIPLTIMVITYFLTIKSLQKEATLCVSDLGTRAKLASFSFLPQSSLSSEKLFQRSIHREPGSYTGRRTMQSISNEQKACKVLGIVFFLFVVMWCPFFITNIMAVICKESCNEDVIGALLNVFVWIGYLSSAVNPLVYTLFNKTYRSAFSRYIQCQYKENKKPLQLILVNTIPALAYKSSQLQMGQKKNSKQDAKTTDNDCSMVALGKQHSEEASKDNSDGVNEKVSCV
Procedure: To assess the potential excitatory effects of compounds targeting on human 5-hydroxytryptamine receptor 2A (5-HT2A) under agonist mode
HTR2A&Ga15-HEK293 cells were cultured in DMEM medium containing 10% dialyzed FBS and 1× penicillin-streptomycin, 100 μg/mL Hygromycin B and 300 μg/mL G418. The cells were passaged about three times a week, maintained between ~30% to ~90% confluence.
• 1. The cell culture medium (DMEM medium containing 10% dialyzed FBS and 1× penicillin-streptomycin, 100 μg/mL Hygromycin B and 300 μg/mL G418), TrypLE™ Express and DPBS was warmed to R. T. in advance. • 2. For induction, 1 μg/ml tetracycline (final concentration) was added to cell culture medium and incubated for 48 hours prior to seeding cells into plate at 37° C., 5% (v/v) CO2. The cell culture medium was removed from flask. Washed cells with DPBS. • 3. 2 mL TrypLE™ Express was added to the flask, mixed well by gentle shaking and cells incubated at 37° C. for a few minutes. • 4. The cells morphological change was checked under microscope, and the digestion stopped by adding 4 mL cell culture medium to the flask when most of cells turned to round. • 5. The cell suspension was transferred into a 15 mL centrifuge tube, and then centrifuged at 1,200 rpm for 5 minutes. • 6. The supernatant was removed. The cell pellet was resuspended with 2 mL cell culture medium. • 7. The cell density was counted using cell counter. Only cells with >85% viability were used for the assay. • 8. Cells were diluted to 6.67×10^5/mL with cell culture medium. • 9. 30 μL/well cell suspensions was added into a 384-well cell plate (The cell density was 20,000 cells/well). • 10. The cell plate was incubated overnight at 37° C., 5% (v/v) CO2. 2.3 Cell handling • 1. On the day of experiments, culture medium was removed from the cell plate. • 12. 10 μL of assay buffer (20 mM HEPES, in 1× HBSS, pH 7.4) was added to each well of the cell plate. • 3. 2×dye solution was prepared following the manual of the FLIPR® Calcium 6 Assay Kit: • i. The dye was diluted with assay buffer. • ii. Probenecid was added to the final concentration of 5 mM. • iii. Vortexed vigorously for 1-2 minutes. • 4. 10 μL of 2× dye solution was added to each well of the cell plate • 5. The cell plate was placed on plate shaker, and was shaken at 600 rpm for 2 minutes. • 6. The plate was incubated at 37° C. for 2 hours followed by an additional 15-minute incubation at 25° C. 2.4 Prepare 3×compound • 1, Serotonin HCl was prepared to the concentration of 10 mM with DMSO. • 2. The test compounds were prepared to the concentration of 10 mM with DMSO. • 3. The compounds were added to a 384-well compound source plate. • 4. 3-folds serial dilutions were performed with DMSO. • 5. 90 nL/well of serial diluted compounds were transferred from source plate to a 384-well compound plate by using an Echo. • 6. 30 μL/well of assay buffer (20 mM HEPES in 1× HBSS, pH 7.4) were added to the compound plate. • 7. Mixed on the plate-on-plate shaker for 2 minutes.
• 1, After the cells were incubated with dye solution, the cell plate, compound plate containing 3×compounds and FLIPR tips were placed into FLIPR. • 2, 10 μL of 3×compounds were transferred from the compound plate to the cell plate by FLIPR. • 3, The plate was read for 160 sec with 1 sec interval to obtain the data of agonist mode.
• 1, The normalized fluorescence reading (RFU) was calculated as shown below, wherein Fmax and Fmin stand for maximum and minimum of calcium signal during defined time window:
[formula] • 2. EC50 was calculated by fitting RFU against log of compound concentrations with Hill equation using XLfit.

Human plasma stability = settings: for Remaining Percentage: human plasma, 0 min
Procedure: as §4, §5, §6, §7

human 5-HT2A receptor = human 5-HT2A receptor (Homo sapiens, UniProt P28223); settings: human versus rat receptor; cited from earlier work
Sequence of human 5-HT2A receptor (P28223 whole entry): as above

frontal cortex = settings: healthy participants, 15 or 20 mg orally; cited from earlier work
[7] = humans, controlled setting; cited from earlier work
[8] = Intestinal mucosal permeation using Caco-2 cell monolayers; settings: human
Procedure: as §1, §2, §3

[9] = Caco-2, pH 7.4, Percentage recovery A→B, apical to basolateral
[10] = Caco-2, pH 7.4, Percentage recovery B→A, basolateral to apical
[11] = FLIPR, agonist mode, ND = Not detected, read-out: h5-HT2A, EC50

Structure (SMILES): CN(C)CCc1c[nH]c2cccc(OC(=O)CCCC(=O)Oc3cccc4[nH]cc(CCN(C)C)c34)c12 [Compound I-24, Bis(3-(2-(dimethylamino)ethyl)-1H-indol-4-yl) glutarate]
- metabolic stability (conclusion) [1]: rapidly metabolized
- Papp A→B at 2 h, 5 µM (in vitro [2]; Caco-2, pH 7.4): 0.27 ×10⁻⁶ cm/s
- Papp B→A at 2 h, 5 µM (in vitro [2]; Caco-2, pH 7.4): 2.47 ×10⁻⁶ cm/s
- efflux ratio at 2 h, 5 µM (in vitro [2]; Caco-2, pH 7.4): 9.16
- recovery at 2 h, 5 µM (in vitro [2]; [9]): 112%
- recovery at 2 h, 5 µM (in vitro [2]; [10]): 105%
- remaining at 0.5 h (in vitro [3]): 0%
- remaining at 1 h (in vitro [3]): 0%
- remaining at 2 h (in vitro [3]): 0%
- remaining at 3 h (in vitro [3]): 0%
- remaining at 4 h (in vitro [3]): 0%
- Remaining Percentage (Rat plasma stability): 100.00%
- Remaining Percentage (Mouse plasma stability): 100.00%
- Remaining Percentage (Dog plasma stability): 100.00%
- remaining at 0.5 h (in vitro [4]): 0%
- remaining at 1 h (in vitro [4]): 0%
- remaining at 2 h (in vitro [4]): 0%
- remaining at 3 h (in vitro [4]): 0%
- remaining at 4 h (in vitro [4]): 0%
- half-life (in vitro [5]): 0.316 h
- remaining at 0.5 h (in vitro [5]): 32.9%
- remaining at 1 h (in vitro [5]): 11.2%
- remaining at 2 h (in vitro [5]): 0%
- remaining at 3 h (in vitro [5]): 0%
- remaining at 4 h (in vitro [5]): 0%
- RFU@10 μM [6]: 3061 RFU
- EC50 [6, 11]: 0.0249 µM
- Remaining Percentage (Human plasma stability): 100.00%

Structure (SMILES): CN(C)CCc1c[nH]c2cccc(O)c12 [Psilocin, 4-hydroxy-N,N-dimethyltryptamine, reference compound]
- Papp A→B at 2 h, 5 µM (in vitro [2]; Caco-2, pH 7.4): 24.6 ×10⁻⁶ cm/s
- Papp B→A at 2 h, 5 µM (in vitro [2]; Caco-2, pH 7.4): 18.7 ×10⁻⁶ cm/s
- RFU@10 μM [6]: 308 RFU

Structure (SMILES): CN(C)CCc1c[nH]c2cccc(OP(=O)(O)O)c12 [Psilocybin]
- affinity for 5-HT2A receptor (human 5-HT2A receptor): stronger affinity for the human 5-HT2A receptor than for the rat receptor
- absolute metabolic rate of glucose (frontal cortex): increased absolute metabolic rate of glucose in frontal, and to a lesser extent in other, cortical regions as well as in striatal and limbic subcortical structures
- adverse effect [7]: transient, delayed headache
- RFU@10 μM [6]: 257 RFU

Structure (SMILES): CC(C)N(CCc1c[nH]c2cccc(OC(=O)CCCC(=O)Oc3cccc4[nH]cc(CCN(C(C)C)C(C)C)c34)c12)C(C)C [Compound I-37, Bis(3-(2-(diisopropylamino)ethyl)-1H-indol-4-yl) glutarate dihydrochloride]
- metabolic stability (conclusion) [1]: rapidly metabolized
- Remaining Percentage (Rat plasma stability): 100.00%
- remaining at 0.5 h (Rat plasma stability; rat, plasma): 0%
- remaining at 1 h (Rat plasma stability; rat, plasma): 0%
- remaining at 2 h (Rat plasma stability; rat, plasma): 0%
- remaining at 3 h (Rat plasma stability; rat, plasma): 0%
- remaining at 4 h (Rat plasma stability; rat, plasma): 0%
- Remaining Percentage (Mouse plasma stability): 100.00%
- remaining at 0.5 h (Mouse plasma stability; mouse, plasma): 0%
- remaining at 1 h (Mouse plasma stability; mouse, plasma): 0%
- remaining at 2 h (Mouse plasma stability; mouse, plasma): 0%
- remaining at 3 h (Mouse plasma stability; mouse, plasma): 0%
- remaining at 4 h (Mouse plasma stability; mouse, plasma): 0%
- Remaining Percentage (Dog plasma stability): 100.00%
- half-life (Dog plasma stability; dog, plasma): 1.91 h
- remaining at 0.5 h (Dog plasma stability; dog, plasma): 82.6%
- remaining at 1 h (Dog plasma stability; dog, plasma): 70.5%
- remaining at 2 h (Dog plasma stability; dog, plasma): 50.5%
- remaining at 3 h (Dog plasma stability; dog, plasma): 31.6%
- remaining at 4 h (Dog plasma stability; dog, plasma): 24.2%
- EC50 [6]: 0.158 µM
- RFU@10 μM [6]: 6768 RFU
- Remaining Percentage (Human plasma stability): 100.00%
- remaining at 0.5 h (Human plasma stability; human, plasma): 0%
- remaining at 1 h (Human plasma stability; human, plasma): 0%
- remaining at 2 h (Human plasma stability; human, plasma): 0%
- remaining at 3 h (Human plasma stability; human, plasma): 0%
- remaining at 4 h (Human plasma stability; human, plasma): 0%
- Papp A→B at 2 h, 5 µM ([8]; Caco-2, pH 7.4): 0.54 ×10⁻⁶ cm/s
- Papp B→A at 2 h, 5 µM ([8]; Caco-2, pH 7.4): 11.3 ×10⁻⁶ cm/s
- efflux ratio at 2 h, 5 µM ([8]; Caco-2, pH 7.4): 21
- recovery at 2 h, 5 µM [8, 9]: 74.9%
- recovery at 2 h, 5 µM [8, 10]: 107%

Structure (SMILES): CC(C)N(CCc1c[nH]c2cccc(O)c12)C(C)C [Compound 7]
- RFU@10 μM [6]: 6358 RFU
- EC50 [6, 11]: 0.0814 µM
